Values after ≈ are worked out from the molar mass of the structure shown.
Columns and labels:
[1] = Solubility of compound in phosphate buffer at pH 7.4 using dried form of sample; format: physicochemical
CDK9/cyclin T1 = CDK9/cyclin T1 (Homo sapiens, UniProt P50750); test: Inhibition of recombinant full length human N-terminal GST-fused CDK9 (1 to 372 residues)/His-tagged CyclinT1 (1 to 726 residues) expressed in baculovirus infected insect cells using FITC-X-GSRTPMY-NH2 as substrate preincubated for 10 mins followed by MgCl2 addition and measured after 90 mins in presence of 5 mM ATP by mobility shift assay
Chain of CDK9/cyclin T1 (O60563 whole entry, the tested form may be a part): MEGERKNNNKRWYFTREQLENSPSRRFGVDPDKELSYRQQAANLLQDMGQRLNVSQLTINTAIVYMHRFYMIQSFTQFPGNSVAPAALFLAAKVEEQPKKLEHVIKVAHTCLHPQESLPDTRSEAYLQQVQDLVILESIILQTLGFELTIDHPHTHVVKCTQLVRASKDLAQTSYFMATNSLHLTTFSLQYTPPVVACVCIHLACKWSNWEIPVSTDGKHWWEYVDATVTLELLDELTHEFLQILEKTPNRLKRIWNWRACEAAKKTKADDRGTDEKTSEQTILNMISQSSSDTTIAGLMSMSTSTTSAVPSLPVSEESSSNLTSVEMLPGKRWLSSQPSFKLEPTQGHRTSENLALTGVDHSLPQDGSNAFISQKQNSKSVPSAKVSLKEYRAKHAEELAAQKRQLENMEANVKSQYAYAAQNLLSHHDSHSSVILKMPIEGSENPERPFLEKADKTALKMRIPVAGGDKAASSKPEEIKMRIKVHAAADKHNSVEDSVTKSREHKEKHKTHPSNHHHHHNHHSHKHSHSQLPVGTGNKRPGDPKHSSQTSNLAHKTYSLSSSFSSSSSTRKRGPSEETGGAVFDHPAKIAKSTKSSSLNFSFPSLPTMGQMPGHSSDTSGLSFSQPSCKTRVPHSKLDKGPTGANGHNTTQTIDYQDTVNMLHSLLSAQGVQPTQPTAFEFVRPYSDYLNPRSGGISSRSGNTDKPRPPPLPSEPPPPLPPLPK
Chain of CDK9/cyclin T1 (P50750 whole entry, the tested form may be a part): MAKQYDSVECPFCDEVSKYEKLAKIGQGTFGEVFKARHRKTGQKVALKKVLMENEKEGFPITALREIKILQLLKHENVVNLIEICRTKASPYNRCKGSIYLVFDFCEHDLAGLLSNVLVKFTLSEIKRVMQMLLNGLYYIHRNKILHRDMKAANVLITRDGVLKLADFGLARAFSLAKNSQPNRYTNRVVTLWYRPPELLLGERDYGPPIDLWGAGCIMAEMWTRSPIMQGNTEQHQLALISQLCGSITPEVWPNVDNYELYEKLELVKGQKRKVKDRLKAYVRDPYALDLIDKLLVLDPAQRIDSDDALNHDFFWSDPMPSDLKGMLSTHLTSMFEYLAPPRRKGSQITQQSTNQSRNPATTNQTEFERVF

[2] = biological target: T1, Cyclin-dependent kinase 9 (Homo sapiens, UniProt P50750); test: Inhibition of CDK9 in human MCF7 cells assessed as reduction in RNA Polymerase 2 CTD phosphorylation at Ser2 residues measured after 6 hrs by immunofluorescence assay; format: cell-based
T1 sequence (P50750 whole entry): as the sequence (P50750 whole entry, the tested form may be a part) above

[3] = biological target: T1, Cyclin-dependent kinase 9; test: Inhibition of CDK9 in human MV4-11 cells assessed as induction of caspase-3/7 activation measured after 6 hrs followed by Caspase-glo reagent based assay; format: cell-based
[4] = Lipophilicity, log D of compound in buffer/octanol at pH 7.4 by shake flask method; format: physicochemical
[5] = Intrinsic clearance in human cryopreserved hepatocytes assessed per million cells […]; format: ADME, cell-based, Hepatocyte; details: read-out: CLH
[6] = Intrinsic clearance in rat cryopreserved hepatocytes assessed per million cells […]; format: ADME, cell-based, Hepatocyte; details: for hepatocyte CLint: cryopreserved hepatocytes, read-out: CLH
[7] = Intrinsic clearance in human liver microsome; format: ADME, microsomes; details: for microsomal CLint: liver microsomes, read-out: CLH
[8] = Drug level in human liver microsomes treated with (1S,3R)-3-Acetamido-N-(5-chloro-4-(4,5,6,7-tetrahydropyrazolo-[1,5-a]pyridin-3-yl)pyridin-2-yl)cyclohexanecarboxamide at 10 uM measured after 1 hr in presence of NADPH by LC-UV-MS analysis; format: ADME, Microsome
[9] = Drug level in human hepatocytes treated with (1S,3R)-3-Acetamido-N-(5-chloro-4-(4,5,6,7-tetrahydropyrazolo-[1,5-a]pyridin-3-yl)pyridin-2-yl)cyclohexanecarboxamide; format: ADME, cell-based, Hepatocyte
[10] = phosphate buffer, read-out: solubility

| solubility [1, 10] | IC50 (CDK9/cyclin T1) | IC50 [2] | EC50 [3] | logD [4] | hepatocyte CLint [5] | hepatocyte CLint [6] | microsomal CLint [7] | solubility ([1]; buffer) | CLH ([6]; hepatocytes) | CLH ([7]; microsomes) | Drug uptake [8] | Drug uptake [9] | Structure (SMILES) |
| --- | --- | --- | --- | --- | --- | --- | --- | --- | --- | --- | --- | --- | --- |
| 45 µM (≈ 18.5 µg/mL) | 61 nM | 140 nM | 150 nM | 3.6 |  |  |  |  |  |  |  |  | CC(=O)N[C@@H]1CCC[C@H](C(=O)Nc2cc(-c3cnn4ccccc34)c(Cl)cn2)C1 |
| 380 µM (≈ 160 µg/mL) |  | 150 nM | 140 nM | 3.2 | < 1 µL/min/1e6 cells | 47 µL/min/1e6 cells | 26 µL/min/mg |  |  |  |  |  | CC(=O)N[C@@H]1CCC[C@H](C(=O)Nc2cc(-c3cnn4c3CC(C)(C)C4)c(C#N)cn2)C1 |
| 960 µM (≈ 374 µg/mL) | 270 nM | 440 nM | 560 nM | 2.6 | < 1 µL/min/1e6 cells | 10 µL/min/1e6 cells | 3.3 µL/min/mg |  |  |  |  |  | CC(=O)N[C@@H]1CCC[C@H](C(=O)Nc2cc(-c3cnn(C)c3C)c(Cl)cn2)C1 |
|  |  | > 2300 nM |  |  | < 1 µL/min/1e6 cells |  | 24 µL/min/mg |  |  |  |  |  | CC(=O)N[C@@H]1CCC[C@H](C(=O)Nc2cc(-c3cn[nH]c3CC(C)(C)CO)c(Cl)cn2)C1 |
| 730 µM (≈ 278 µg/mL) | 230 nM | 520 nM | 440 nM | 2.4 |  | 33 µL/min/1e6 cells | < 3 µL/min/mg |  |  |  |  |  | CC(=O)N[C@@H]1CCC[C@H](C(=O)Nc2cc(-c3cnn4c3CCCC4)ccn2)C1 |
| 160 µM (≈ 68.4 µg/mL) | < 3 nM | 10 nM | 15 nM | 3.6 | 23 µL/min/1e6 cells | 42 µL/min/1e6 cells | 178 µL/min/mg |  |  |  |  |  | CC(=O)N[C@@H]1CCC[C@H](C(=O)Nc2cc(-c3cnn4c3CC(C)(C)CC4)c(F)cn2)C1 |
| 120 µM (≈ 49.4 µg/mL) | 750 nM | 1600 nM |  | 3 |  |  |  |  |  |  |  |  | CC(=O)N[C@@H]1CCC[C@H](C(=O)Nc2cc(-c3cnc4ccccn34)c(Cl)cn2)C1 |
| 870 µM (≈ 375 µg/mL) | 220 nM | 800 nM | 910 nM | 2.1 |  | 7.7 µL/min/1e6 cells | < 3 µL/min/mg |  |  |  |  |  | CC(=O)N[C@@H]1CCC[C@H](C(=O)Nc2cc(-c3cnn4c3CN(C)CC4)c(Cl)cn2)C1 |
| 160 µM (≈ 64.3 µg/mL) | 180 nM | 530 nM | 330 nM | 2.9 |  | 72 µL/min/1e6 cells | < 3 µL/min/mg |  |  |  |  |  | CC(=O)N[C@@H]1CCC[C@H](C(=O)Nc2cc(-c3cnn4c3CCC4)c(Cl)cn2)C1 |
| 280 µM (≈ 120 µg/mL) |  |  |  | 3.6 | 2.5 µL/min/1e6 cells | 28 µL/min/1e6 cells | 63 µL/min/mg |  |  |  |  |  | CC(=O)N[C@@H]1CCC[C@H](C(=O)Nc2cc(-c3cnc4n3CC(C)(C)C4)c(Cl)cn2)C1 |
|  | 27 nM | 77 nM | 77 nM |  |  |  |  | 159 µM (≈ 66.1 µg/mL) | 85 µL/min | 18 µL/min/mg |  |  | CC(=O)N[C@@H]1CCC[C@H](C(=O)Nc2cc(-c3cnn4c3CC(C)C4)c(Cl)cn2)C1 (stereo in doubt; 27) |
| 600 µM (≈ 246 µg/mL) |  |  |  | 3.1 |  | 53 µL/min/1e6 cells | 19 µL/min/mg |  |  |  |  |  | CC(=O)N[C@@H]1CCC[C@H](C(=O)Nc2cc(-c3cnn4c3CC(C)(C)C4)c(C)cn2)C1 |
| 490 µM (≈ 197 µg/mL) | 310 nM | 760 nM | 700 nM | 2.6 |  | 19 µL/min/1e6 cells | 9.7 µL/min/mg |  |  |  |  |  | CC(=O)N[C@@H]1CCC[C@H](C(=O)Nc2cc(-c3cnc4n3CCC4)c(Cl)cn2)C1 |
| 860 µM (≈ 359 µg/mL) |  | 860 nM | 670 nM | 2.4 |  | 10 µL/min/1e6 cells | 6.2 µL/min/mg |  |  |  |  |  | CC(=O)N[C@@H]1CCC[C@H](C(=O)Nc2cc(-c3cnn4c3NCCC4)c(Cl)cn2)C1 |
|  |  | 720 nM |  |  | 33 µL/min/1e6 cells |  | 18 µL/min/mg |  |  |  | Active | Active | CC(=O)N[C@@H]1CCC[C@H](C(=O)Nc2cc(-c3cnn4c3CCCC4O)c(Cl)cn2)C1 (stereo not given in full) |
| > 1000 µM |  | 100 nM | 160 nM | 2.9 |  | 73 µL/min/1e6 cells | < 3 µL/min/mg |  |  |  |  |  | CC(=O)N[C@@H]1CCC[C@H](C(=O)Nc2cc(-c3cnn4c3CCCC4)c(F)cn2)C1 |

| solubility [1, 10] | IC50 (CDK9/cyclin T1) | IC50 [2] | EC50 [3] | logD [4] | hepatocyte CLint [5] | hepatocyte CLint [6] | microsomal CLint [7] | solubility ([1]; buffer) | CLH ([6]; hepatocytes) | CLH ([7]; microsomes) | Drug uptake [8] | Drug uptake [9] | Structure (SMILES) |
| --- | --- | --- | --- | --- | --- | --- | --- | --- | --- | --- | --- | --- | --- |
|  |  | > 2000 nM |  |  | 2.9 µL/min/1e6 cells |  | 15 µL/min/mg |  |  |  | Active | Active | CC(=O)N[C@@H]1CCC[C@H](C(=O)Nc2cc(-c3cn[nH]c3CCCCO)c(Cl)cn2)C1 |
| 15 µM (≈ 5.41 µg/mL) |  | 44 nM | 38 nM | 3.2 | 106 µL/min/1e6 cells | 157 µL/min/1e6 cells | 25 µL/min/mg |  |  |  |  |  | CC1(C)Cc2c(-c3cc(NC(=O)[C@H]4C[C@@H](O)C4)ncc3Cl)cnn2C1 |
|  | 26 nM | 36 nM | 92 nM | 3.4 |  | 97 µL/min/1e6 cells | 13 µL/min/mg | 79 µM (≈ 32.9 µg/mL) |  |  |  |  | CC(=O)N[C@@H]1CCC[C@H](C(=O)Nc2cc(-c3cnn4c3CC(C)C4)c(Cl)cn2)C1 (stereo in doubt; 28) |
| 110 µM (≈ 46 µg/mL) | 110 nM | 350 nM | 260 nM | 2.6 |  | 34 µL/min/1e6 cells | < 3 µL/min/mg |  |  |  |  |  | CC(=O)N[C@@H]1CCC[C@H](C(=O)Nc2cc(-c3cnn4c3OCCC4)c(Cl)cn2)C1 |
| 530 µM (≈ 221 µg/mL) | 4400 nM | > 2600 nM |  | 2 |  |  |  |  |  |  |  |  | CC(=O)N[C@@H]1CCC[C@H](C(=O)Nc2cc(-c3nnn4c3CCCC4)c(Cl)cn2)C1 |
| 600 µM (≈ 250 µg/mL) | 660 nM | 1200 nM | 1200 nM | 2.7 |  | 12 µL/min/1e6 cells | 16 µL/min/mg |  |  |  |  |  | CC(=O)N[C@@H]1CCC[C@H](C(=O)Nc2cc(-c3cnc4n3CCCC4)c(Cl)cn2)C1 |
| 970 µM (≈ 384 µg/mL) | 29 nM | 150 nM | 100 nM | 2.8 | < 1 µL/min/1e6 cells | 45 µL/min/1e6 cells | < 3 µL/min/mg |  |  |  |  |  | CC(=O)N[C@@H]1CCC[C@H](C(=O)Nc2cc(-c3cnn4c3CC(C)(C)C4)ccn2)C1 |
|  | 20 nM | 170 nM |  |  | 48 µL/min/1e6 cells |  | 14 µL/min/mg |  |  |  |  |  | CC(=O)N[C@@H]1CCC[C@H](C(=O)Nc2cc(-c3cnn4c3CC(C)(C)C4O)c(Cl)cn2)C1 (stereo not given in full) |
| 104 µM (≈ 44.7 µg/mL) |  | 92 nM | 180 nM | 3.6 | 4.6 µL/min/1e6 cells | 51 µL/min/1e6 cells | 39 µL/min/mg |  |  |  |  |  | CC(=O)N[C@@H]1CCC[C@H](C(=O)Nc2cc(-c3cnn4c3CCCCC4)c(Cl)cn2)C1 |
| 220 µM (≈ 91.9 µg/mL) | 1000 nM | 2100 nM | 1900 nM | 2.4 |  | 18 µL/min/1e6 cells | < 3 µL/min/mg |  |  |  |  |  | CC(=O)N[C@@H]1CCC[C@H](C(=O)Nc2cc(-c3cnn4c3COCC4)c(Cl)cn2)C1 |
| 640 µM (≈ 262 µg/mL) |  | 48 nM | 39 nM | 3.1 | 4.3 µL/min/1e6 cells | 35 µL/min/1e6 cells | 29 µL/min/mg |  |  |  |  |  | CC(=O)N[C@@H]1CCC[C@H](C(=O)Nc2cc(-c3cnn4c3CC(C)(C)CC4)ccn2)C1 |
|  |  |  |  |  |  |  |  |  |  |  | Active | Active | CC(=O)N[C@@H]1CCC[C@H](C(=O)Nc2cc(-c3cn[nH]c3CCCC(=O)O)c(Cl)cn2)C1 |
| 35 µM (≈ 14.6 µg/mL) |  | 40 nM | 15 nM | 3.5 | 5.8 µL/min/1e6 cells | 97 µL/min/1e6 cells | 38 µL/min/mg |  |  |  |  |  | CC(=O)N[C@@H]1CC[C@H](C(=O)Nc2cc(-c3cnn4c3CC(C)(C)C4)c(Cl)cn2)C1 |
| 660 µM (≈ 253 µg/mL) | 380 nM | 920 nM | 660 nM | 1.9 |  | 7.4 µL/min/1e6 cells | 3.6 µL/min/mg |  |  |  |  |  | CC(=O)N[C@@H]1CCC[C@H](C(=O)Nc2cc(-c3cnc(C)n3C(C)C)ccn2)C1 |
| > 1000 µM | 5300 nM | > 3000 nM |  | 2.2 |  |  |  |  |  |  |  |  | CC(=O)N[C@@H]1CCC[C@H](C(=O)Nc2cc(-c3cnc(C)n3C)c(Cl)cn2)C1 |

From ChEMBL document CHEMBL4673352, “Discovery of AZD4573, a Potent and Selective Inhibitor of CDK9 That Enables Short Duration of Target Engagement for the Treatment of Hematological Malignancies” (J Med Chem, 2020)
